Assay results as given in PubChem BioAssay AID1259407 (Chemical Carcinogenesis Research Information System (CCRIS), 2018).
Calls of active or inactive are those of the source. The rule behind the calls is not given here.

System: CCRIS mutagenicity, Ames/micronucleus/aberration tests
Assay: CCRIS mutagenicity studies
[1] = Test System: AMES SALMONELLA TYPHIMURIUM, Strain/Indicator: TA98, Metabolic Activation: NONE, Method: PREINCUBATION
[2] = Test System: AMES SALMONELLA TYPHIMURIUM, Strain/Indicator: TA100, Metabolic Activation: NONE, Method: PREINCUBATION

Compound: CC(=O)Nc1ccc(Oc2ccc(NO)cc2)cc1
- mutagenic call (Test System: AMES SALMONELLA TYPHIMURIUM, Strain/Indicator: TA98(1,8-DNP6), Metabolic Activation: NONE, Method: PREINCUBATION): active; positive
- mutagenic call (Test System: AMES SALMONELLA TYPHIMURIUM, Strain/Indicator: TA98(1,8-DNP6), Metabolic Activation: RAT, LIVER, S-9, AROCLOR 1254, Method: PREINCUBATION): active; positive
- mutagenic call (Test System: AMES SALMONELLA TYPHIMURIUM, Strain/Indicator: TA98(NR), Metabolic Activation: NONE, Method: PREINCUBATION): active; positive
- mutagenic call (Test System: AMES SALMONELLA TYPHIMURIUM, Strain/Indicator: TA98(NR), Metabolic Activation: RAT, LIVER, S-9, AROCLOR 1254, Method: PREINCUBATION): active; positive
- mutagenic call [1]: active; positive
- mutagenic call (Test System: AMES SALMONELLA TYPHIMURIUM, Strain/Indicator: TA98, Metabolic Activation: RAT, LIVER, S-9, AROCLOR 1254, Method: PREINCUBATION): active; positive
- mutagenic call (Test System: AMES SALMONELLA TYPHIMURIUM, Strain/Indicator: TA100(NR), Metabolic Activation: NONE, Method: PREINCUBATION): active; positive
- mutagenic call [2]: active; positive

Compound: CCC(C)(C)OC
- mutagenic call (Test System: AMES SALMONELLA TYPHIMURIUM, Strain/Indicator: TA98, Metabolic Activation: NONE, Method: STANDARD PLATE): inactive; negative
- mutagenic call (Test System: AMES SALMONELLA TYPHIMURIUM, Strain/Indicator: TA98, Metabolic Activation: RAT, LIVER, S-9, AROCLOR 1254, Method: STANDARD PLATE): inactive; negative
- mutagenic call (Test System: AMES SALMONELLA TYPHIMURIUM, Strain/Indicator: TA100, Metabolic Activation: NONE, Method: STANDARD PLATE): inactive; negative
- mutagenic call (Test System: AMES SALMONELLA TYPHIMURIUM, Strain/Indicator: TA100, Metabolic Activation: RAT, LIVER, S-9, AROCLOR 1254, Method: STANDARD PLATE): inactive; negative
- mutagenic call (Test System: AMES SALMONELLA TYPHIMURIUM, Strain/Indicator: TA1535, Metabolic Activation: NONE, Method: STANDARD PLATE): inactive; negative
- mutagenic call (Test System: AMES SALMONELLA TYPHIMURIUM, Strain/Indicator: TA1535, Metabolic Activation: RAT, LIVER, S-9, AROCLOR 1254, Method: STANDARD PLATE): inactive; negative
- mutagenic call (Test System: AMES SALMONELLA TYPHIMURIUM, Strain/Indicator: TA1537, Metabolic Activation: NONE, Method: STANDARD PLATE): inactive; negative
- mutagenic call (Test System: AMES SALMONELLA TYPHIMURIUM, Strain/Indicator: TA1537, Metabolic Activation: RAT, LIVER, S-9, AROCLOR 1254, Method: STANDARD PLATE): inactive; negative
- mutagenic call (Test System: AMES SALMONELLA TYPHIMURIUM, Strain/Indicator: TA1538, Metabolic Activation: NONE, Method: STANDARD PLATE): inactive; negative
- mutagenic call (Test System: AMES SALMONELLA TYPHIMURIUM, Strain/Indicator: TA1538, Metabolic Activation: RAT, LIVER, S-9, AROCLOR 1254, Method: STANDARD PLATE): inactive; negative

Compound: O=C(Cl)c1ccccc1C(=O)Cl
- mutagenic call [1]: active; positive
- mutagenic call (Test System: AMES SALMONELLA TYPHIMURIUM, Strain/Indicator: TA98, Metabolic Activation: RAT LIVER S-9, PCB, Method: PREINCUBATION): active; positive
- mutagenic call [2]: active; positive
- mutagenic call (Test System: AMES SALMONELLA TYPHIMURIUM, Strain/Indicator: TA100, Metabolic Activation: RAT LIVER S-9, PCB, Method: PREINCUBATION): active; positive
- mutagenic call (Test System: AMES SALMONELLA TYPHIMURIUM, Strain/Indicator: TA104, Metabolic Activation: NONE, Method: PREINCUBATION): active; positive
- mutagenic call (Test System: AMES SALMONELLA TYPHIMURIUM, Strain/Indicator: TA104, Metabolic Activation: RAT LIVER S-9, PCB, Method: PREINCUBATION): active; positive
- mutagenic call (Test System: E.COLI, Strain/Indicator: WP2 UVRA, Metabolic Activation: NONE, Method: PREINCUBATION): active; positive
- mutagenic call (Test System: E.COLI, Strain/Indicator: WP2 UVRA, Metabolic Activation: RAT LIVER S-9, PCB, Method: PREINCUBATION): active; positive

Compound: O=C(NO)OCc1ccccc1
- mutagenic call (Test System: E. COLI, Strain/Indicator: WP2 UVRA, Metabolic Activation: NONE, Method: FLUCTUATION TEST): active; positive
